For 2 molecules, inhibition and Activity results are on record in ChEMBL document CHEMBL3351666, “Nocatriones A and B, photoprotective tetracenediones from a marine-derived Nocardiopsis sp” (J Nat Prod, 2014).

Series [1] is described as follows: Reduction in UVB radiation-induced MMP1 secretion in human ScienCell 2320 cells at 10 uM exposed to 144 mJ/cm2 UVB irradiation by ELISA method. The series is classed as functional. The conditions noted are these: ScienCell 2320, light or radiation study. (In an ELISA, binding on a coated surface is turned into a signal by an enzyme label.)
Series [2] can be described thus: Reduction in MMP1 secretion in human MCTT MC1233 cells at 10 uM by ELISA method. The series is classed as functional.
Series [3] is described as follows: Cytotoxicity against human ScienCell 2320 cells assessed as reduction in cell viability at 1 to 10 uM incubated for 72 hrs by MTT assay. It is filed as cell-based. The note with it: sciencell 2320, 72 h. (In general: Formazan colour is commonly taken as a measure of viable cells.)
A short description of series [4]: Reduction in MMP1 secretion in human MCTT MC1233 cells at 5 uM by ELISA method. It is filed as functional.
Series [5] is described as follows: Cytotoxicity against human ScienCell 2320 cells exposed to 144 mJ/cm2 UVB irradiation assessed as reduction in cell viability at 1 to 10 uM incubated for 72 hrs by MTT assay. It is filed as cell-based. The conditions noted are these: sciencell 2320, 72 h.
Series [6] is described as follows: Cytotoxicity against human MCTT MC1233 cells assessed as reduction in cell viability at 1 to 10 uM incubated for 72 hrs by MTT assay. The series is classed as cell-based. The note with it: mctt mc1233, 72 h.
Series [7] is described as follows: Cytotoxicity against human MCTT MC1233 cells exposed to 144 mJ/cm2 UVB irradiation assessed as reduction in cell viability at 1 to 10 uM incubated for 72 hrs by MTT assay. It is filed as cell-based. The note with it: mctt mc1233, 72 h.
The nature of series [8]: Reduction in MMP1 secretion in human ScienCell 2320 cells at 10 uM by ELISA method. The series is classed as functional.
The subject of another series is MCTT MC1233. The series is described as follows: Reduction in UVB radiation-induced MMP1 secretion in human MCTT MC1233 cells exposed to 144 mJ/cm2 UVB irradiation by ELISA method. The series is classed as functional, cell-based.
A short description of series [9]: Reduction in UVB radiation-induced MMP1 secretion in human MCTT MC1233 cells at 10 uM exposed to 144 mJ/cm2 UVB irradiation by ELISA method. It is filed as functional. The note with it: MCTT MC1233, light or radiation study.

By inhibition is commonly meant the share of the control response that was lost under treatment.

`Cc1c2c(cc(O)c1-c1cc(O)cc(=O)o1)C(=O)c1cc3cc(O)cc(O)c3c(O)c1C2=O`: the inhibition at 10 µM turned out to be 99% in [1], 83% in series [2], 99% in [8] and 65% in series [9]. The Activity result in [3], in [5], in series [6] and in series [7] was “Non-toxic” throughout. This molecule registered an inhibition at 5 µM in series [4] of 58%. Moreover, the inhibition entry in the series with MCTT MC1233 is “Dose-dependent effect”.
With `Cc1c(-c2cc(O)cc(=O)o2)c(O)cc2cc3c(c(O)c12)C(=O)c1c(O)cc(O)cc1C3=O`, the figures for the inhibition at 10 µM in series [1], in series [8] and in series [9] were 91%, 93% and 18%, respectively. Moreover, the Activity entry in [3], in series [5], in series [6] and in series [7] was “Non-toxic” each time. In the series with MCTT MC1233, the inhibition result is “Dose-dependent effect”.
